We go through 15 molecules from the SangsterLogP compilation.

Molecule `OCC1OC(n2cnc3c(NCc4ccccc4)nc(Cl)nc32)CC1O` (stereo not given) gave a lipophilicity (logP) of 2.48.

On to `OC[C@H]1O[C@@H](n2cnc3ccccc32)C[C@@H]1O`, for which the log partition coefficient (logP) was 0.69.

Molecule `OCCNc1nc(Cl)nc2c1ncn2[C@H]1C[C@@H](O)[C@@H](CO)O1` returned a lipophilicity (logP) of 0.47.

Take `Nc1nc(Cl)nc2c1ccn2[C@H]1C[C@H](O)[C@@H](CO)O1`: the lipophilicity (logP) is 0.38.

The molecule `Nc1nc(Cl)nc2c1nc(Br)n2C1CC(O)C(CO)O1` (stereo not given) gave a logP of 0.9.

Molecule `OCC1OC(n2cnc3c(NC4CCCCC4)nc(Cl)nc32)CC1O` (stereo not given) returned a logP of 3.

Turning to `Nc1nc(Cl)nc2nc[nH]c12`, the logP was 0.35.

Molecule `CNc1nc(Cl)nc2c1ncn2[C@H]1C[C@H](O)[C@@H](CO)O1` yielded a logP of 0.91.

Take `OC[C@H]1O[C@@H](n2nc3ccccc3n2)C[C@@H]1O`: the logP was 1.06.

In turn, `Nc1ncnc2ncn([C@H]3C[C@H](O)[C@@H](CO)O3)c12` showed a log partition coefficient (logP) of -0.01.

`Nc1nc(Cl)nc2c1cnn2[C@H]1C[C@H](O)[C@@H](CO)O1` showed a logP of 0.38.

In the case of `Nc1nc(Br)nc2c1ncn2C1CC(O)C(CO)O1` (stereo not given), the logP came to 0.41.

The molecule `OC[C@H]1O[C@@H](n2nnc3ccccc32)C[C@@H]1O` showed a logP of 0.55.

Regarding `Nc1ncnc2c1ncn2[C@H]1C[C@H](O)[C@@H](CO)O1`, the logP was -0.68.

In turn, `CCn1cnc2c(N)nc(Cl)nc21` came in with a logP of 1.16.

What is called logP is the decadic logarithm of the partition coefficient of the neutral form, usually between octanol and water. Lower therefore signals lower lipophilicity.
